Measurements from patent US20050032243A1, “Method and apparatus for rapid determination of ligand-protein binding using charcoal adsorption” (priority 2001, published 2005).

Columns and labels:
[1] = target: T1, human serum albumin (HSA) (Homo sapiens, UniProt P02768); assay: Extent of DCC adsorption as a function of unbound fraction (HSA dilutions, ultrafiltration)
Method: Solutions were allowed to incubate at room temperature for 30 minutes and 200 μl samples were loaded onto the DCC cartridge. Elution was initiated and samples collected under vacuum at 5, 10 and 60 seconds.
(§1) Ultrafiltration Experiments. […] Samples (0.5 ml) were centrifuged (1500×g; 3 minutes) at 25° C.
0.1 μCi/ml) in isotonic PBS and dilutions of a 40 mg/ml HSA solution were prepared. Solutions were allowed to incubate at room temperature for 30 minutes and 200 μl samples were loaded onto the DCC cartridge. Elution was initiated and samples were collected under vacuum at 1 second and at 60 seconds. Adsorption of each ligand also was evaluated after 2 hours of DCC exposure.
as §1
Evaluation of Alternative HSA Site I-Specific Ligands.
The relationship between the extent of adsorption and the unbound fraction for each ligand can be described by Equation 1. y=yo+a(1−e^−bx) Equation 1

HSA = details: literature reference value; cited from earlier work
[2] = target: T1, human serum albumin (HSA); assay: Time course of ligand adsorption in packed-bed DCC cartridge in the presence of HSA; details: HSA 40 mg/ml, at termination of experiment (5 minutes)
Method: Model Ligand Adsorption Experiments in the DCC Cartridge. […] Charcoal adsorption experiments were conducted in the packed-bed DCC cartridge (20 mg, 10% DCC). Cartridges were prepared and preconditioned with a 40-mg/ml solution of HSA. […] 200 μl samples were loaded onto the DCC cartridge. Elution was initiated and samples collected under vacuum at 1, 2, 5, 10, 20, 40, 60, 120 and 300 seconds.
Ligand Adsorption Experiments in the DCC Cartridge. […] Charcoal adsorption experiments were conducted in a packed-bed DCC cartridge (20 mg DCC, 10% w/w). Cartridges were prepared and preconditioned with a 40 mg/ml solution of HSA. […] 200 μl samples were loaded onto the DCC cartridge. Elution was initiated and samples collected under vacuum at 1, 2, 5, 10, 20, 40, 60, 120 and 300 seconds.

[3] = 1 minute DCC exposure, mean ± SE

T1 sequence (P02768 25-609): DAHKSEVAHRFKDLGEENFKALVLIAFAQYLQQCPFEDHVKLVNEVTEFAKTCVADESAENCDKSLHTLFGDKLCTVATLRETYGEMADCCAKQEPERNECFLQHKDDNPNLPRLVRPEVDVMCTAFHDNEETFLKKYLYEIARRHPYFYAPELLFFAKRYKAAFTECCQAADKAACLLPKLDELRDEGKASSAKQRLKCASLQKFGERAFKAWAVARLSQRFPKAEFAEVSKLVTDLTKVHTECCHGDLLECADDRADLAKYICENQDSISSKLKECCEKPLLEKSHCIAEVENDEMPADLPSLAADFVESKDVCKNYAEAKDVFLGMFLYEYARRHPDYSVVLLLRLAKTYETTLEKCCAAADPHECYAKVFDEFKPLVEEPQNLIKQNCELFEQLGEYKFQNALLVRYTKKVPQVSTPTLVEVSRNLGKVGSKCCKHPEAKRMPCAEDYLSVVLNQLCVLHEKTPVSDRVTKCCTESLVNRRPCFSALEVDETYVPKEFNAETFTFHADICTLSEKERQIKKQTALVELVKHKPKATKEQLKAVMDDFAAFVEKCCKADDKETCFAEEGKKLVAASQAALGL

C[C@H]1O[C@@H](O[C@H]2[C@@H](O)C[C@H](O[C@H]3[C@@H](O)C[C@H](O[C@H]4CC[C@@]5(C)[C@H](CC[C@@H]6[C@@H]5CC[C@]5(C)[C@@H](C7=CC(=O)OC7)CC[C@]65O)C4)O[C@@H]3C)O[C@@H]2C)C[C@H](O)[C@@H]1O [[^3H]-DIGT, digitoxin]
Yo (intercept of Equation 1, extent of adsorption at unbound fraction 0) [1, 3]: 0 | a (empirical parameter of Equation 1) [1, 3]: 95.6 ± 0.3 | b (empirical parameter of Equation 1) [1, 3]: 29.5 ± 0.7 | DCC adsorption as unbound fraction approached 0.2 ([1]; 1 minute of charcoal exposure): nearly complete | UNBOUND FRACTION (HSA): 0.05 | adsorption to DCC in the presence of HSA [2]: ~100%

O=C1NC(=O)C(c2ccccc2)(c2ccccc2)N1 [[^3H]-DPH, diphenylhydantion]
adsorption after 1 minute of exposure to DCC, restricted or not [1]: not restricted | UNBOUND FRACTION (HSA): 0.12

CC(C)NCC(O)COc1cccc2ccccc12 (stereo not drawn) [[^3H]-PRO, propanonol]
UNBOUND FRACTION (HSA): 0.13

N[C@@H](Cc1c[nH]c2ccccc12)C(=O)O [[^3H]-TRP, L-tryptophan]
UNBOUND FRACTION (HSA): 0.5

CCCC(CCC)C(=O)O [[^3H]-VPA, valproic acid, valproate]
a (empirical parameter of Equation 1) [1]: 82.9 ± 8.6 | b (empirical parameter of Equation 1) [1]: 1.5 ± 0.4 | Yo (intercept of Equation 1, extent of adsorption at unbound fraction 0) ([1]; human): 27.0 ± 4.1 | fraction unbound at 10 mg/ml ([1]; human): ~0.8 | UNBOUND FRACTION (HSA): 0.1
